Measurements from publication PMC8113290, “[^11C]MODAG-001—towards a PET tracer targeting α-synuclein aggregates” (European Journal of Nuclear Medicine and Molecular Imaging, 2020).
pKd: −log10 of the molar value. Read-outs that look alike come from different tables or passages of the source. Marks after values point to notes of the source that are not given here. Blank lines part the entries; values can stand above or below the compound they belong to.

Key:
[1] = In vivo PET imaging in mice (brain uptake); details: mouse, i.v. injection, one exemplary animal
Protocol: PET imaging was performed on a dedicated small animal Inveon PET scanner (Siemens Healthcare, Knoxville (TN), USA). Mice and rats were anesthetized with 1.5–1.7% isoflurane evaporated in 100% oxygen at a flow rate of 0.8 L/min, which was maintained during the entire experiment. After a tail vein catheter was placed, the animal was positioned in the center of the field of view (FOV) on an MR-compatible PET bed that was connected to a feedback temperature control unit set to 37 °C. Mice were injected intravenously (i.v.) with 17 ± 2 MBq [^11C]MODAG-001 (n = 3) or 12 ± 1 MBq (d3)-[^11C]MODAG-001 (n = 5) 5 s after the start of the PET acquisition. […]
Whole body mouse PET scans were coregistered to the whole body MR scan, which was sequentially acquired after the PET scan, and the volumes of interest (VOIs) of the lung, liver, heart, brain, and kidneys were drawn by hand based on the MR anatomical information using PMOD software (version 3.2; PMOD Technologies, Zürich, Switzerland). VOIs of different brain regions were extracted using the mouse or rat brain atlas provided by PMOD [10-12], and tissue time activity curves (TACs) were calculated and are expressed as standardized uptake values (SUVs), which were calculated as follows: SUV(t) = radioactivity concentration (kBq/mL of the organ)/(injected dose [kBq]/body weight [g]). […]

[2] = target: T1, αSYN fibrils inoculated into the right striatum (Homo sapiens, UniProt P37840); assay: In vivo PET imaging in αSYN fibril-inoculated rats; design: species or system rat; details: for mean distribution volume ratio (DVR)-1 40-60min (binding potential): 4 days post inoculation
T1 construct: made in house; host or cells: E. coli BL21(DE3)pLys
Protocol: Rats were inoculated with αSYN fibrils (4 μL, 30 μM) into the right striatum (see supplementary material and methods section for a detailed description) and scanned 4 days post-inoculation with 23 ± 1 MBq of (d3)-[^11C]MODAG-001.
Data acquisition, correction, framing and reconstruction, volume of interest (VOI) definition, and determination of binding parameters are described in detail in the supplementary material and methods section.
Rats were allowed to adapt for two weeks in the animal facility before fibril injection. Three adult female rats were anaesthetized with an intraperitoneal (i.p.) injection of a mixture of fentanyl (0.005 mg/kg), midazolam (2 mg/kg), and medetomidine (0.15 mg/kg) at 1 mL/kg. The head of each rat was shaved, and the animal was placed into a stereotaxic frame. A central incision was made to expose the bregma and lambda. A 5 µL syringe needle (Hamilton Company, Reno (NV), USA) was enclosed with a glass capillary (inner diameter, 50 µm, Hilgenberg GmbH, Malsfeld, Germany). αSYN fibrils (4 µL, 30 µM) were injected using a stereotaxic injector (Stoelting, Wood Lane, IL, USA) through a drill hole into the right striatum (ML= -3.2 mm, AP = 0.0 mm, DV = -4.8 mm) according to the stereotaxic atlas of Paxinos and Watson [9][. Based on the volume of the right striatum (0.04 cm^3), the concentration of inoculated fibrils was calculated as 2.8 µM. As a negative control, 4 µL of vehicle (50 mM Tris base, 100 mM sodium chloride, 0.02 % sodium azide, pH 7.0) were injected into the contralateral striatum. A total fibril volume of 4 µL was obtained by the injection of 0.4 µL every 60 seconds. To allow for diffusion of the fibrils into the tissue, the needle was left in this position for five minutes. […]
Whole body mouse PET scans were coregistered to the whole body MR scan, which was sequentially acquired after the PET scan, and the volumes of interest (VOIs) of the lung, liver, heart, brain, and kidneys were drawn by hand based on the MR anatomical information using PMOD software (version 3.2; PMOD Technologies, Zürich, Switzerland). VOIs of different brain regions were extracted using the mouse or rat brain atlas provided by PMOD [10-12], and tissue time activity curves (TACs) were calculated and are expressed as standardized uptake values (SUVs), which were calculated as follows: SUV(t) = radioactivity concentration (kBq/mL of the organ)/(injected dose [kBq]/body weight [g]). […] Distribution volume ratio 1 (DVR-1) values were calculated from individual TACs from 40 to 60 minutes, using the vehicle-injected striatum as a reference region, with the following formula: activity in fibril inoculated right striatum/activity in vehicle injected left striatum) - 1. […]

[3] = Radio-metabolite analysis in mouse plasma and brain by radio-HPLC; assay type: in vivo; details: for M3 % / M3 %ID: metabolite 3; for M2* % / M2* %ID: mixture of various metabolites
Protocol: For metabolite analysis, mice were i.v. injected with 91 ± 24 MBq of [^11C]MODAG-001 (n = 4 per time point) or 120 ± 41 MBq of (d3)-[^11C]MODAG-001 (n = 3 per time point) using a tail vein catheter. Five and 15 min after injection, plasma and brain homogenates were analyzed using radio-HPLC (for detailed information see supplemental material and methods section).
A 400 µL blood sample was collected by heart puncture five or 15 minutes after tracer injection. The blood was centrifuged at 17,000 x g and 4 °C for two minutes, and the plasma was transferred to a 1.5 mL reaction tube on ice for further analysis. After blood collection, mice were transcardially perfused (10 mL/min) with 20 mL of ice-cold PBS, and the brain of each mouse was removed from the skull. The brain was transferred to a glass tube (2 mL Dounce tissue grinder set, Sigma Aldrich Chemie GmbH) containing 0.5 mL of ice-cold PBS, sequentially homogenized using large and small clearance pestles and transferred to a 1.5 mL reaction tube on ice for further analysis. Plasma or brain homogenate was mixed 1:1 with acetonitrile and briefly centrifuged. After two minutes of incubation on ice, each mixture was centrifuged at room temperature for 1.5 minutes at 12,000 x g (MiniSpin®, Eppendorf AG) to remove precipitated proteins. The supernatant was subjected to reversed-phase HPLC on a Luna Phenyl Hexyl column (5 µm, 100 Å, 300 mm x 4.6 mm, Phenomenex) equipped with a radioactivity detector with 0.1 % trifluoroacetic acid in water/acetonitrile (70:30) at an isocratic flow rate of 1.5 mL/min.
For data analysis, the median of ten consecutive data points was calculated to remove noise; data were corrected for radioactive decay to time zero, defined as start of the HPLC of the five minute brain sample. This time zero radioactivity was plotted against time using Origin software (OriginLab Corporation, version 9.1G, Northampton, MA, USA). The area under the curve was calculated in % using the peak analyzer function and scaled up that the peaks add up to 100 %. The area under the curve was transformed into radioactivity values using a standard of [^11C]MODAG-001 with known radioactivity also corrected for decay and expressed as % injected radioactivity dose (%ID) per gram of brain tissue or per plasma in one mL of blood.

[4] = tested on: αSYN and Aβ1–42 fibrils; design: method as in PMID 29989823; details: similar rat model, despite good cerebral uptake and high Am ref 30; cited from earlier work
[5] = target: recombinant αSYN fibrils; details: cited from earlier work
[6] = mouse brain, 5 min after injection
[7] = mouse brain, 5 min after injection, parent compound
[8] = mouse brain, 15 min after injection, metabolite 1
[9] = mouse brain, 15 min after injection
[10] = mouse brain, 15 min after injection, parent compound
[11] = mouse plasma, 5 min after injection, metabolite 1
[12] = mouse plasma, 5 min after injection
[13] = mouse plasma, 5 min after injection, parent compound
[14] = mouse plasma, 15 min after injection, metabolite 1
[15] = mouse plasma, 15 min after injection
[16] = mouse plasma, 15 min after injection, parent compound

peak standardized uptake value (SUV) in brain [1]: 1.7 | mean distribution volume ratio (DVR)-1 40-60min (binding potential) ([2]; 70% automatic isocontour VOI, contralateral side as reference): 0.44 ± 0.21 | peak SUV ([2]; left striatum of fibril-inoculated rats): 2.1 ± 0.1 | peak SUV ([2]; non-injected control rat): 2.1 | mean distribution volume ratio (DVR)-1 40-60min (binding potential) ([2]; whole striatum VOI, contralateral vehicle-injected striatum as reference): 0.14 ± 0.1 | M1 %ID ([3]; mouse brain, 5 min after injection, metabolite 1): 0.4* %ID per g brain tissue | M1 % ([3]; mouse brain, 5 min after injection, metabolite 1, % of radioactivity): 5% | M3 % [3, 6]: 2% | M3 %ID [3, 6]: 0.2* %ID per g brain tissue | P % [3, 7]: 93% | P %ID [3, 7]: 8.8 %ID per g brain tissue | M1 % [3, 8]: 5% | M1 %ID [3, 8]: 0.4* %ID per g brain tissue | M3 % [3, 9]: 8% | M3 %ID [3, 9]: 0.7* %ID per g brain tissue | P % [3, 10]: 87% | P %ID [3, 10]: 7.2 %ID per g brain tissue | M1 % [3, 11]: 21% | M1 %ID [3, 11]: 0.6^# %ID per plasma in 1 mL blood | M3 % [3, 12]: 6% | M3 %ID [3, 12]: 0.1^# %ID per plasma in 1 mL blood | M2* % [3, 12]: 34% | M2* %ID [3, 12]: 0.9^# %ID per plasma in 1 mL blood | P % [3, 13]: 39% | P %ID [3, 13]: 1.0^# %ID per plasma in 1 mL blood | M1 % [3, 14]: 30% | M1 %ID [3, 14]: 0.8^# %ID per plasma in 1 mL blood | M3 % [3, 15]: 4% | M3 %ID [3, 15]: 0.1^# %ID per plasma in 1 mL blood | M2* % [3, 15]: 36% | M2* %ID [3, 15]: 1.0^# %ID per plasma in 1 mL blood | P % [3, 16]: 30% | P %ID [3, 16]: 0.8^# %ID per plasma in 1 mL blood
SMILES: [2H]C([2H])([2H])N([11CH3])c1ccc(-c2cc(-c3ccnc(Br)c3)[nH]n2)cc1 [(d3)-[^11C]MODAG-001]

peak standardized uptake value (SUV) in brain [1]: 1.4 | tissue uptake at 5 min ([3]; intravenous, mouse brain, 5 min after injection, parent compound, read-out: P %ID): 10.5 %ID/g | tissue uptake at 15 min ([3]; intravenous, mouse brain, 15 min after injection, parent compound, read-out: P %ID): 5.3 %ID/g | P % [3, 7]: 91% | P %ID [3, 7]: 10.5* %ID per g brain tissue | P % [3, 10]: 81% | P %ID [3, 10]: 5.3* %ID per g brain tissue | P % [3, 13]: 26% | P %ID [3, 13]: 0.8^# %ID per plasma in 1 mL blood | P % [3, 16]: 24% | P %ID [3, 16]: 0.7^# %ID per plasma in 1 mL blood
SMILES: CN([11CH3])c1ccc(-c2cc(-c3ccnc(Br)c3)[nH]n2)cc1 [[^11C]MODAG-001]

SMILES: CN(c1ccc(/C=C/c2nc3ccccc3o2)cc1)S(=O)(=O)c1ccccc1[18F] [[^18F]2FBox]
binding in vivo [4]: no binding was observed in vivo

SMILES: CN(C)c1ncc(C=Cc2nc3ccc(OCCF)cc3o2)s1 [[^18F]BF-227]
pKd ([5]; recombinant αSYN fibrils ref 26): 8.02 | binding in vivo [4]: no binding was observed in vivo

SMILES: O=[N+]([O-])c1ccc2c(c1)Sc1cc(OC/C=C/I)ccc1N2 [[^125I]SIL23]
pKd ([5]; recombinant αSYN fibrils ref 24): 6.83
